{"source": "patent US4238491A", "about": "(priority 1977, dated 1980)", "tested_on": "rats", "note": "Like-named read-outs stand apart in the source and are kept apart here.", "description": "The rate were bred in individual cages under the following conditions: temperature, 23°±2° C.; relative humidity, 55±5%; free taking of solid food (CE-2, CLEA Japan, Inc.) and tap water.\nVolume of the medicine solution for one administration was dicided to be 1 ml per 100 g of weight, and the dose was administered once a day, 6 times a week over 5 weeks. The control group received the same volume of 0.2% carboxymethyl cellulose solution."}
{"compound": "COC(=O)[C@H]1[C@H]2C[C@@H]3c4[nH]c5cc(OC)ccc5c4CCN3C[C@H]2C[C@@H](O)[C@@H]1OC", "note": "[MR, methylreserpate]", "values": [{"measurement": "Eosino.", "setting": "25.0 mg/kg, day 10", "result": "1.5±0.3", "unit": "%"}, {"measurement": "Lymph.", "setting": "25.0 mg/kg, day 10", "result": "81.8±2.0", "unit": "%"}, {"measurement": "Mono.", "setting": "25.0 mg/kg, day 10", "result": "2.1±0.4", "unit": "%"}, {"measurement": "Neutro.", "setting": "25.0 mg/kg, day 10", "result": "14.6±1.6", "unit": "%"}, {"measurement": "Platelet", "setting": "25.0 mg/kg, day 10", "result": "853±32.6 ×10^3 /mm^3"}, {"measurement": "Eosino.", "setting": "25.0 mg/kg, day 20", "result": "1.8±0.4", "unit": "%"}, {"measurement": "Lymph.", "setting": "25.0 mg/kg, day 20", "result": "74.8±2.1", "unit": "%"}, {"measurement": "Mono.", "setting": "25.0 mg/kg, day 20", "result": "1.2±0.3", "unit": "%"}, {"measurement": "Neutro.", "setting": "25.0 mg/kg, day 20", "result": "22.8±2.2", "unit": "%"}, {"measurement": "Eosino.", "setting": "25.0 mg/kg, day 30", "result": "1.4±0.6", "unit": "%"}, {"measurement": "Lymph.", "setting": "25.0 mg/kg, day 30", "result": "78.0±2.0", "unit": "%"}, {"measurement": "Mono.", "setting": "25.0 mg/kg, day 30", "result": "1.5±0.5", "unit": "%"}, {"measurement": "Neutro.", "setting": "25.0 mg/kg, day 30", "result": "19.2±1.9", "unit": "%"}, {"measurement": "Platelet", "setting": "25.0 mg/kg, day 30", "result": "658±26.8 ×10^3 /mm^3"}, {"measurement": "Eosino.", "setting": "50.0 mg/kg, day 10", "result": "1.8±0.4", "unit": "%"}, {"measurement": "Lymph.", "setting": "50.0 mg/kg, day 10", "result": "82.3±1.1", "unit": "%"}, {"measurement": "Mono.", "setting": "50.0 mg/kg, day 10", "result": "2.4±0.3", "unit": "%"}, {"measurement": "Neutro.", "setting": "50.0 mg/kg, day 10", "result": "13.5±0.8", "unit": "%"}, {"measurement": "Platelet", "setting": "50.0 mg/kg, day 10", "result": "861±33.5 ×10^3 /mm^3"}, {"measurement": "Eosino.", "setting": "50.0 mg/kg, day 20", "result": "1.3±0.4", "unit": "%"}, {"measurement": "Lymph.", "setting": "50.0 mg/kg, day 20", "result": "75.0±2.3", "unit": "%"}, {"measurement": "Mono.", "setting": "50.0 mg/kg, day 20", "result": "1.6±0.3", "unit": "%"}, {"measurement": "Neutro.", "setting": "50.0 mg/kg, day 20", "result": "22.1±2.2", "unit": "%"}, {"measurement": "Eosino.", "setting": "50.0 mg/kg, day 30", "result": "2.6±0.5", "unit": "%"}, {"measurement": "Lymph.", "setting": "50.0 mg/kg, day 30", "result": "78.7±1.8", "unit": "%"}, {"measurement": "Mono.", "setting": "50.0 mg/kg, day 30", "result": "1.2±0.2", "unit": "%"}, {"measurement": "Neutro.", "setting": "50.0 mg/kg, day 30", "result": "17.5±1.8", "unit": "%"}, {"measurement": "Platelet", "setting": "50.0 mg/kg, day 30", "result": "656±36.7 ×10^3 /mm^3"}, {"measurement": "Eosino.", "setting": "100.0 mg/kg, day 10", "result": "2.3±0.5", "unit": "%"}, {"measurement": "Lymph.", "setting": "100.0 mg/kg, day 10", "result": "77.1±2.2", "unit": "%"}, {"measurement": "Mono.", "setting": "100.0 mg/kg, day 10", "result": "2.3±0.3", "unit": "%"}, {"measurement": "Neutro.", "setting": "100.0 mg/kg, day 10", "result": "18.3±2.3", "unit": "%"}, {"measurement": "Platelet", "setting": "100.0 mg/kg, day 10", "result": "782±31.2 ×10^3 /mm^3"}, {"measurement": "Eosino.", "setting": "100.0 mg/kg, day 20", "result": "1.2±0.3", "unit": "%"}, {"measurement": "Lymph.", "setting": "100.0 mg/kg, day 20", "result": "69.6±3.0", "unit": "%"}, {"measurement": "Mono.", "setting": "100.0 mg/kg, day 20", "result": "1.6±0.3", "unit": "%"}, {"measurement": "Neutro.", "setting": "100.0 mg/kg, day 20", "result": "27.6±2.9", "unit": "%"}, {"measurement": "Eosino.", "setting": "100.0 mg/kg, day 30", "result": "1.4±0.4", "unit": "%"}, {"measurement": "Lymph.", "setting": "100.0 mg/kg, day 30", "result": "75.2±1.6", "unit": "%"}, {"measurement": "Mono.", "setting": "100.0 mg/kg, day 30", "result": "1.5±0.3", "unit": "%"}, {"measurement": "Neutro.", "setting": "100.0 mg/kg, day 30", "result": "21.9±1.9", "unit": "%"}, {"measurement": "Platelet", "setting": "100.0 mg/kg, day 30", "result": "696±13.9 ×10^3 /mm^3"}, {"measurement": "Eosino.", "setting": "200.0 mg/kg, day 10, 4 rats", "result": "0.8±0.5", "unit": "%"}, {"measurement": "Lymph.", "setting": "200.0 mg/kg, day 10, 4 rats", "result": "36.3±12", "unit": "%"}, {"measurement": "Mono.", "setting": "200.0 mg/kg, day 10, 4 rats", "result": "1.3±0.5", "unit": "%"}, {"measurement": "Neutro.", "setting": "200.0 mg/kg, day 10, 4 rats", "result": "61.8±12", "unit": "%"}, {"measurement": "Platelet", "setting": "200.0 mg/kg, day 10, 4 rats", "result": "592±54.7 ×10^3 /mm^3"}]}
